Source: patent US10174044B2, “Fused pyridines as kinase inhibitors” (BRISTOL-MYERS SQUIBB COMPANY, priority 2015, dated 2019)

Biological target: GST-Xa-hAAK1 (Homo sapiens (Human), UniProt Q2M2I8)
Test: AAK1 Kinase Assay
Type: biochemical
Conditions: bacterially expressed GST-Xa-hAAK1 3.5 nM; ATP 22 μM; fluoresceinated peptide substrate 1.5 μM; 3 hours at room temperature
Procedure: The assays were performed in U-bottom 384-well plates. […] The reactions were initiated by the combination of bacterially expressed, GST-Xa-hAAK1 with substrates and test compounds. The reactions were incubated at room temperature for 3 hours and terminated by adding 60 μl of 35 mM EDTA buffer to each sample. The reactions were analyzed on the Caliper LabChip 3000 (Caliper, Hopkinton, Mass.) by electrophoretic separation of the fluorescent substrate and phosphorylated product. […] Compounds were dissolved at 10 mM in dimethylsulfoxide (DMSO) and evaluated at eleven concentrations. IC50 values were derived by non-linear regression analysis.

Chain of GST-Xa-hAAK1 (Q2M2I8 whole entry): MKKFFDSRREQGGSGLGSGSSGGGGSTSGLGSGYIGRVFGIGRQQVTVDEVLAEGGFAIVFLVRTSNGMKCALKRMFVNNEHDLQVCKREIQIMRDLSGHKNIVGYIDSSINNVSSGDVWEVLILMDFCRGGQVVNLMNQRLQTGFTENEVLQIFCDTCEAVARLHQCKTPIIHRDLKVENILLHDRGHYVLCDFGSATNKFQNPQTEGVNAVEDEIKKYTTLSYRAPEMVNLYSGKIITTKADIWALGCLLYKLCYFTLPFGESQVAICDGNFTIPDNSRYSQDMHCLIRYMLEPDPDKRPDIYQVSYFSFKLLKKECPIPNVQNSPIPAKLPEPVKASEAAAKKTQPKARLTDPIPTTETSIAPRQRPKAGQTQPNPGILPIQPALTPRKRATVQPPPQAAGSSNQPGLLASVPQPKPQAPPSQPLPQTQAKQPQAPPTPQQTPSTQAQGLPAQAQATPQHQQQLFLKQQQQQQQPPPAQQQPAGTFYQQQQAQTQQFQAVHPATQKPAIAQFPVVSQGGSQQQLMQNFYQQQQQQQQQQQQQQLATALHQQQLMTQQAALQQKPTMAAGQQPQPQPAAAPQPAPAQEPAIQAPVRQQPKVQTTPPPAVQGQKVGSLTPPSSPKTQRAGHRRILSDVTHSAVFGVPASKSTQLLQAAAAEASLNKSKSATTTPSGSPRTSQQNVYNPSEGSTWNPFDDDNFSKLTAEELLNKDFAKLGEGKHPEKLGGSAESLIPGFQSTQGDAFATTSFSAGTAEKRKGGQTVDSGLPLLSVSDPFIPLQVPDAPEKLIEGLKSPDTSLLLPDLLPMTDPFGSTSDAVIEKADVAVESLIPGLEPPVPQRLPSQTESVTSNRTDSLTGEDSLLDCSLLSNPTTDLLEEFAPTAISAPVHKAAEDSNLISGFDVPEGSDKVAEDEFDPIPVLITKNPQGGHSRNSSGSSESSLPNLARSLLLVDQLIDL

SMILES | IC50 [nM]
CC(C)C[C@H](N)COc1ccc2c(c1)c(=O)n(C)c1cnccc21 [Example 2, (S)-8-((2-amino-4-methylpentyl)oxy)-5-methylbenzo[c][1,7]naphthyridin-6(5H)-one] | 37
Cc1cc2c(cc1OC[C@@H](N)CC(C)C)c(=O)n(C)c1c(C)nccc21 [Example 4, (S)-8-((2-amino-4-methylpentyl)oxy)-4,5,9-trimethylbenzo[c][1,7]naphthyridin-6(5H)-one] | 14
Cc1nccc2c3cc(Cl)c(OC[C@@H](N)CC(C)C)cc3c(=O)n(C)c12 [Example 5, (S)-8-((2-amino-4-methylpentyl)oxy)-9-chloro-4,5-dimethylbenzo[c][1,7]naphthyridin-6(5H)-one] | 87
CC(C)CC(C)(N)COc1ccc2c(c1)c(=O)n(C)c1cnccc21 (stereo not shown) [Example 7, 8-((2-amino-2,4-dimethylpentyl)oxy)-5-methylbenzo[c][1,7]naphthyridin-6(5H)-one] | 31
Cc1nccc2c3ccc(OC[C@](C)(N)CC(C)C)cc3c(=O)n(C)c12 [Example 11, (R)-8-((2-amino-2,4-dimethylpentyl)oxy)-4,5-dimethylbenzo[c][1,7]naphthyridin-6(5H)-one] | 92
Cc1cc2c3ccc(OC[C@@](C)(N)CC(C)C)cc3c(=O)n(C)c2cn1 [Example 14, (S)-8-((2-amino-2,4-dimethylpentyl)oxy)-2,5-dimethylbenzo[c][1,7]naphthyridin-6(5H)-one] | 8.1
Cc1nccc2c3ccc(OC[C@@](C)(N)CC(C)C)c(Cl)c3c(=O)n(C)c12 [Example 15, (S)-8-((2-amino-2,4-dimethylpentyl)oxy)-7-chloro-4,5-dimethylbenzo[c][1,7]naphthyridin-6(5H)-one] | 59
CCn1c(=O)c2cc(OC[C@@](C)(N)CC(C)C)c(Cl)cc2c2ccnc(C)c21 [Example 16, (S)-8-((2-amino-2,4-dimethylpentyl)oxy)-9-chloro-5-ethyl-4-methylbenzo[c][1,7]naphthyridin-6(5H)-one] | 24

Further compounds by falling IC50, results first:

IC50 [nM] | SMILES
117 | [2H]C([2H])(Oc1ccc2c(c1)c(=O)n(C)c1c(C)nccc21)C(C)(N)CC(C)C (stereo not shown) [Example 13, 8-((2-amino-1,1-dideutero-2,4-dimethylpentyl)oxy)-4,5-dimethylbenzo[c][1,7]naphthyridin-6(5H)-one]
49 | Cc1nccc2c3ccc(OCC(C)(N)CC(C)C)cc3c(=O)n(C)c12 (stereo not shown) [Example 9, 8-((2-amino-2,4-dimethylpentyl)oxy)-4,5-dimethylbenzo[c][1,7]naphthyridin-6(5H)-one]
35 | Cc1nccc2c3ccc(OC[C@@](C)(N)CC(C)C)cc3c(=O)n(C)c12 [Example 10, (S)-8-((2-amino-2,4-dimethylpentyl)oxy)-4,5-dimethylbenzo[c][1,7]naphthyridin-6(5H)-one]
30 | [2H]C([2H])(Oc1cc2c(=O)n(CC)c3c(C)nccc3c2cc1Cl)C(C)(N)CC(C)C (stereo not shown) [Example 12, 8-((2-amino-1,1-dideutero-2,4-dimethylpentyl)oxy)-9-chloro-5-ethyl-4-methylbenzo[c][1,7]naphthyridin-6(5H)-one]
9.5 | CC(C)C[C@H](N)COc1ccc2c(c1)c(=O)[nH]c1cnccc12 [Example 1, (S)-8-((2-amino-4-methylpentyl)oxy)benzo[c][1,7]naphthyridin-6(5H)-one]
3.7 | Cc1cc2c(cc1OCC(N)CCC(F)(F)F)c(=O)n(C)c1cnccc21 (stereo not shown) [Example 6, 8-((2-amino-5,5,5-trifluoropentyl)oxy)-5,9-dimethylbenzo[c][1,7]naphthyridin-6(5H)-one]
3.2 | Cc1cc2c(cc1OC[C@@H](N)CC(C)C)c(=O)n(C)c1cnccc21 [Example 3, (S)-8-((2-amino-4-methylpentyl)oxy)-5,9-dimethylbenzo[c][1,7]naphthyridin-6(5H)-one]
2.6 | CC(C)CC(C)(N)COc1ccc2c(c1)c(=O)[nH]c1cnccc12 (stereo not shown) [Example 8, 8-((2-amino-2,4-dimethylpentyl)oxy)benzo[c][1,7]naphthyridin-6(5H)-one]
